Measurements as given in patent US20260284208A1, “SYSTEM” (Oxford University Innovation Limited, priority 2023, published 2026).

System: library of 8,380 IKZF3 degrons (ZF-eGFP/mCherry reporter) in Jurkat cells
Test: Pooled library screen (FACS, NGS, limma voom LogFC of positive vs negative read counts)
Type: cell-based, human
Procedure, shortened: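 Cells were lentivirally transduced at MOI <0.3, and mCherry+ cells were sorted 6 days later. Eight days after sorting, cells were treated with DMSO or thalidomide analog for 18 h at 37 °C. mCherry+GFPlow (DMSO-set gate, DAPI-excluded) and remaining cells were sorted, and degrons were PCR-amplified from gDNA and sequenced (>600× coverage, 3 biological replicates).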

Question: How did the A32_logFC (Degron-ID 794, SEQ ID NO 61, 46F_47E_49E_50I_52G_53A_54R_55F_67L) turn out when `O=C1CCC(N2C(=O)c3ccccc3C2=O)C(=O)N1` (centres unmarked) [A32, 2-(2,6-dioxopiperidin-3-yl)isoindoline-1,3-dione] was run?
Answer: 3.549

Question: And the A32_logFC (Degron-ID 834, SEQ ID NO 125, 46F_47E_49E_50V_52G_53A_54R_55F_67L)?
Answer: 3.292

Question: What about the A32_logFC (Degron-ID 911, SEQ ID NO 130, 46F_47E_49P_50I_52G_53A_54N_55F_67L) of the same compound?
Answer: 3.269

Question: And the A32_logFC (Degron-ID 914, SEQ ID NO 108, 46F_47E_49P_50I_52G_53A_54R_55F_67L)?
Answer: 3.367

Question: And the A32_logFC (Degron-ID 915, SEQ ID NO 119, 46F_47E_49P_50I_52G_53A_54S_55F_67L)?
Answer: 3.325

Question: What about the A32_logFC (Degron-ID 917, SEQ ID NO 116, 46F_47E_49P_50I_52G_53A_54V_55F_67L) of the same compound?
Answer: 3.331

Question: What about the A32_logFC (Degron-ID 1752, SEQ ID NO 91, 46F_47I_49E_50I_52G_53A_54P_55F_67L) of the same compound?
Answer: 3.433

Question: What about the A32_logFC (Degron-ID 2392, SEQ ID NO 93, 46F_47L_49P_50V_52G_53A_54P_55F_67L) of the same compound?
Answer: 3.414

Question: What about the A32_logFC (Degron-ID 2881, SEQ ID NO 123, 46F_47Q_49D_50I_52G_53A_54C_55F_67L) of the same compound?
Answer: 3.299

Question: What about the A32_logFC (Degron-ID 2887, SEQ ID NO 82, 46F_47Q_49D_50I_52G_53A_54I_55F_67L) of the same compound?
Answer: 3.467

Question: And the A32_logFC (Degron-ID 2888, SEQ ID NO 126, 46F_47Q_49D_50I_52G_53A_54K_55F_67L)?
Answer: 3.282

Question: And the A32_logFC (Degron-ID 2892, SEQ ID NO 112, 46F_47Q_49D_50I_52G_53A_54P_55F_67L)?
Answer: 3.346

Question: And the A32_logFC (Degron-ID 2941, SEQ ID NO 79, 46F_47Q_49E_50I_52G_53A_54C_55F_67L)?
Answer: 3.477

Question: And the A32_logFC (Degron-ID 2943, SEQ ID NO 71, 46F_47Q_49E_50I_52G_53A_54E_55F_67L)?
Answer: 3.525

Question: And the A32_logFC (Degron-ID 2948, SEQ ID NO 84, 46F_47Q_49E_50I_52G_53A_54K_55F_67L)?
Answer: 3.461

Question: What about the A32_logFC (Degron-ID 2949, SEQ ID NO 65, 46F_47Q_49E_50I_52G_53A_54L_55F_67L) of the same compound?
Answer: 3.534

Question: And the A32_logFC (Degron-ID 2950, SEQ ID NO 54, 46F_47Q_49E_50I_52G_53A_54M_55F_67L)?
Answer: 3.574

Question: And the A32_logFC (Degron-ID 2953, SEQ ID NO 58, 46F_47Q_49E_50I_52G_53A_54Q_55F_67L)?
Answer: 3.557

Question: And the A32_logFC (Degron-ID 2956, SEQ ID NO 137, 46F_47Q_49E_50I_52G_53A_54T_55F_67L)?
Answer: 3.256

Question: And the A32_logFC (Degron-ID 2988, SEQ ID NO 97, 46F_47Q_49E_50V_52G_53A_54K_55F_67L)?
Answer: 3.401

Question: What about the A32_logFC (Degron-ID 2990, SEQ ID NO 72, 46F_47Q_49E_50V_52G_53A_54M_55F_67L) of the same compound?
Answer: 3.522

Question: And the A32_logFC (Degron-ID 2991, SEQ ID NO 55, 46F_47Q_49E_50V_52G_53A_54N_55F_67L)?
Answer: 3.561

Question: What about the A32_logFC (Degron-ID 2992, SEQ ID NO 64, 46F_47Q_49E_50V_52G_53A_54P_55F_67L) of the same compound?
Answer: 3.535

Question: What about the A32_logFC (Degron-ID 2995, SEQ ID NO 67, 46F_47Q_49E_50V_52G_53A_54S_55F_67L) of the same compound?
Answer: 3.531

Question: What about the A32_logFC (Degron-ID 3000, SEQ ID NO 100, 46F_47Q_49N_50I_52G_53A_54A_55F_67L) of the same compound?
Answer: 3.386

Question: And the A32_logFC (Degron-ID 3001, SEQ ID NO 105, 46F_47Q_49N_50I_52G_53A_54C_55F_67L)?
Answer: 3.375

Question: And the A32_logFC (Degron-ID 3007, SEQ ID NO 7, 46F_47Q_49N_50I_52G_53A_54I_55F_67L)?
Answer: 3.811

Question: And the A32_logFC (Degron-ID 3008, SEQ ID NO 134, 46F_47Q_49N_50I_52G_53A_54K_55F_67L)?
Answer: 3.259

Question: What about the A32_logFC (Degron-ID 3013, SEQ ID NO 127, 46F_47Q_49N_50I_52G_53A_54Q_55F_67L) of the same compound?
Answer: 3.279

Question: And the A32_logFC (Degron-ID 3014, SEQ ID NO 133, 46F_47Q_49N_50I_52G_53A_54R_55F_67L)?
Answer: 3.262

Question: And the A32_logFC (Degron-ID 3015, SEQ ID NO 114, 46F_47Q_49N_50I_52G_53A_54S_55F_67L)?
Answer: 3.343

Question: What about the A32_logFC (Degron-ID 3016, SEQ ID NO 6, 46F_47Q_49N_50I_52G_53A_54T_55F_67L) of the same compound?
Answer: 3.867

Question: And the A32_logFC (Degron-ID 3017, SEQ ID NO 80, 46F_47Q_49N_50I_52G_53A_54V_55F_67L)?
Answer: 3.473

Question: What about the A32_logFC (Degron-ID 3047, SEQ ID NO 106, 46F_47Q_49N_50V_52G_53A_54I_55F_67L) of the same compound?
Answer: 3.374

Question: And the A32_logFC (Degron-ID 3057, SEQ ID NO 94, 46F_47Q_49N_50V_52G_53A_54V_55F_67L)?
Answer: 3.409

Question: What about the A32_logFC (Degron-ID 3060, SEQ ID NO 68, 46F_47Q_49P_50I_52G_53A_54A_55F_67L) of the same compound?
Answer: 3.529

Question: And the A32_logFC (Degron-ID 3062, SEQ ID NO 8, 46F_47Q_49P_50I_52G_53A_54D_55F_67L)?
Answer: 3.806

Question: What about the A32_logFC (Degron-ID 3066, SEQ ID NO 120, 46F_47Q_49P_50I_52G_53A_54H_55F_67L) of the same compound?
Answer: 3.318

Question: What about the A32_logFC (Degron-ID 3067, SEQ ID NO 10, 46F_47Q_49P_50I_52G_53A_54I_55F_67L) of the same compound?
Answer: 3.792

Question: What about the A32_logFC (Degron-ID 3068, SEQ ID NO 90, 46F_47Q_49P_50I_52G_53A_54K_55F_67L) of the same compound?
Answer: 3.436

Question: And the A32_logFC (Degron-ID 3069, SEQ ID NO 107, 46F_47Q_49P_50I_52G_53A_54L_55F_67L)?
Answer: 3.373

Question: What about the A32_logFC (Degron-ID 3071, SEQ ID NO 50, 46F_47Q_49P_50I_52G_53A_54N_55F_67L) of the same compound?
Answer: 3.58

Question: What about the A32_logFC (Degron-ID 3074, SEQ ID NO 62, 46F_47Q_49P_50I_52G_53A_54R_55F_67L) of the same compound?
Answer: 3.549

Question: What about the A32_logFC (Degron-ID 3075, SEQ ID NO 11, 46F_47Q_49P_50I_52G_53A_54S_55F_67L) of the same compound?
Answer: 3.79

Question: And the A32_logFC (Degron-ID 3076, SEQ ID NO 56, 46F_47Q_49P_50I_52G_53A_54T_55F_67L)?
Answer: 3.56

Question: What about the A32_logFC (Degron-ID 3079, SEQ ID NO 109, 46F_47Q_49P_50I_52G_53A_54Y_55F_67L) of the same compound?
Answer: 3.361

Question: And the A32_logFC (Degron-ID 3080, SEQ ID NO 129, 46F_47Q_49P_50Q_52G_53A_54A_55F_67L)?
Answer: 3.273

Question: And the A32_logFC (Degron-ID 3081, SEQ ID NO 138, 46F_47Q_49P_50Q_52G_53A_54C_55F_67L)?
Answer: 3.255

Question: What about the A32_logFC (Degron-ID 3097, SEQ ID NO 92, 46F_47Q_49P_50Q_52G_53A_54V_55F_67L) of the same compound?
Answer: 3.423

Question: And the A32_logFC (Degron-ID 3101, SEQ ID NO 83, 46F_47Q_49P_50V_52G_53A_54C_55F_67L)?
Answer: 3.465
